Laboratory results reported in patent publication US11230540B2, “Substituted triazole derivatives and uses thereof” (Bayer Pharma Aktiengesellschaft, priority 2017, dated 2022).
Counter-ions that a name gives are not always drawn.

Experiments:
human V1a receptor = target: T1, human V1a receptor (Homo sapiens, UniProt P37288); assay: Cellular in vitro assay for vasopressin receptor activity, V1a receptor cell line (aequorin luminescence); format: cell-based; settings: for IC50: CHO cell line transfected with human V1a receptor, [Arg8]-vasopressin at EC50 concentration, read-out: IC50 hV1a; for ratio IC50 hV2/hV1a: selectivity ratio of the IC50 values hV2/hV1a
T1 construct: expressed in transfected cells; host or cells: CHO K1 (Chinese hamster ovary), also stably transfected with a modified aequorin
Outline: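 Recombinant CHO K1 cells stably expressing human V1a receptor and aequorin, loaded with coelenterazine, were exposed to test compounds for 10 minutes before [Arg^8]-vasopressin at EC50 concentration. Calcium-triggered luminescence was measured immediately, giving IC50 values.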

human V2 receptor = target: T2, human V2 receptor (Homo sapiens, UniProt P30518); assay: Cellular in vitro assay for vasopressin receptor activity, V2 receptor cell line (CRE-luciferase); format: cell-based; settings: CHO cell line transfected with human V2 receptor; [Arg8]-vasopressin at EC50 concentration; read-out: IC50 hV2
T2 construct: expressed in transfected cells; host or cells: CHO K1 (Chinese hamster ovary) expressing firefly luciferase under a CRE-responsive promoter
Outline: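 CHO K1 cells stably expressing human V2 receptor with CRE-driven firefly luciferase, plated the day before. Test compounds at various concentrations added together with [Arg^8]-vasopressin at EC50 concentration, 3 h at 37° C, 5% CO2. Luminescence read after Triton lysis and luciferin addition; IC50 values reported.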

T2 sequence (P30518 whole entry): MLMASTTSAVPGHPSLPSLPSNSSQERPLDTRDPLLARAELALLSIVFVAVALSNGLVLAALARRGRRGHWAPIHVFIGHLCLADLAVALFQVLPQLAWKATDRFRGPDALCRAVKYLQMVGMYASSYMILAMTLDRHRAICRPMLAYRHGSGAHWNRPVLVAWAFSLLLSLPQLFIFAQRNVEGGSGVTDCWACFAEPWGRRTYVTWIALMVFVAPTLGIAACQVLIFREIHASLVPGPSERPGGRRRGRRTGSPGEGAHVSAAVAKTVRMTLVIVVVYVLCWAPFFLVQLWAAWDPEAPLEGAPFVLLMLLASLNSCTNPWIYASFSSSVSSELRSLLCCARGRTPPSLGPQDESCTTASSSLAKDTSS
T1 sequence (P37288 whole entry): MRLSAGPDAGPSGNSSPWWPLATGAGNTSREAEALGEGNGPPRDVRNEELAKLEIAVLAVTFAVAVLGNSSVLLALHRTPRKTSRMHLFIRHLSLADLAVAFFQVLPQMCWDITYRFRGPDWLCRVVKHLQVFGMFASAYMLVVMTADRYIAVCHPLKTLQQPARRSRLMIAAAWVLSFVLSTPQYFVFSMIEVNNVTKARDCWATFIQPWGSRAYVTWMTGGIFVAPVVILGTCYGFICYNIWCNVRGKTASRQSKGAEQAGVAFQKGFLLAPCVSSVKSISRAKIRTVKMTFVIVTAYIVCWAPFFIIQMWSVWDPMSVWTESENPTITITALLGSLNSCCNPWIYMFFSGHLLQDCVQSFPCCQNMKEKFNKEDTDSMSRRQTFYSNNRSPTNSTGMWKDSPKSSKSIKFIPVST

| IC50 (human V1a receptor) | IC50 (human V2 receptor) | ratio IC50 hV2/hV1a (human V1a receptor) | SMILES |
| --- | --- | --- | --- |
| 13 nM | 183 nM |  | CC(C)(O)CNC(=O)c1nc(Cn2nc(-c3ccc(Cl)cc3)n(C[C@H](O)C(F)(F)F)c2=O)nn1-c1cccnc1Cl [Example 15, 3-({3-(4-Chlorophenyl)-5-oxo-4-[(2S)-3,3,3-trifluoro-2-hydroxypropyl]-4,5-dihydro-1H-1,2,4-triazol-1-yl}methyl)-1-(2-chloropyridin-3-yl)-N-(2-hydroxy-2-methylpropyl)-1H-1,2,4-triazole-5-carboxamide] |
| 285 nM | 245 nM | 0.9 | CC1(O)CCN(C(=O)c2nc(Cn3nc(-c4ccc(Cl)cc4)n(C[C@H](O)C(F)(F)F)c3=O)nn2CCC(F)(F)F)C1 (single isomer, unassigned) [Example 23] |
| 131 nM | 98.7 nM | 0.8 | CC(C)(C)OC(=O)N1CCN(C(=O)c2nc(Cn3nc(-c4ccc(Cl)cc4)n(C[C@H](O)C(F)(F)F)c3=O)nn2-c2cccc(F)c2)CC1 [Example 40, tert-Butyl 4-{[3-({3-(4-chlorophenyl)-5-oxo-4-[(2S)-3,3,3-trifluoro-2-hydroxypropyl]-4,5-dihydro-1H-1,2,4-triazol-1-yl}methyl)-1-(3-fluorophenyl)-1H-1,2,4-triazol-5-yl]carbonyl}piperazine-1-carboxylate] |
| 290 nM | 435 nM | 1.5 | CC1(O)CCN(C(=O)c2nc(Cn3nc(-c4ccc(Cl)cc4)n(C[C@H](O)C(F)(F)F)c3=O)nn2CCC(F)(F)F)C1 (mixture of isomers) [Example 22, 5-(4-Chlorophenyl)-2-{[5-{[3-hydroxy-3-methylpyrrolidin-1-yl]carbonyl}-1-(3,3,3-trifluoropropyl)-1H-1,2,4-triazol-3-yl]methyl}-4-[(2S)-3,3,3-trifluoro-2-hydroxypropyl]-2,4-dihydro-3H-1,2,4-triazol-3-one] |
| 1.1 nM | 235 nM | 214.6 | CC1(C)CN(C(=O)c2nc(Cn3nc(-c4ccc(Cl)cc4)n(C[C@H](O)C(F)(F)F)c3=O)nn2-c2ncccc2C(F)(F)F)CCO1 [Example 56, 5-(4-Chlorophenyl)-2-({5-(2,2-dimethylmorpholine-4-carbonyl)-1-[3-(trifluoromethyl)pyridin-2-yl]-1H-1,2,4-triazol-3-yl}methyl)-4-[(2S)-3,3,3-trifluoro-2-hydroxypropyl]-2,4-dihydro-3H-1,2,4-triazol-3-one] |
| 1.2 nM | 7.43 nM | 6.2 | O=C(NCC1(O)CC1)c1nc(Cn2nc(-c3ccc(Cl)cc3)n(C[C@H](O)C(F)(F)F)c2=O)nn1-c1ccccc1Cl [Example 32, 1-(2-Chlorophenyl)-3-({3-(4-chlorophenyl)-5-oxo-4-[(2S)-3,3,3-trifluoro-2-hydroxypropyl]-4,5-dihydro-1H-1,2,4-triazol-1-yl}methyl)-N-[(1-hydroxycyclopropyl)methyl]-1H-1,2,4-triazole-5-carboxamide] |
| 108 nM | 315 nM | 2.9 | O=CN1CCC(NC(=O)c2nc(Cn3nc(-c4ccc(Cl)cc4)n(C[C@H](O)C(F)(F)F)c3=O)nn2-c2cccnc2Cl)C1 (mixture of isomers) [Example 14, 3-({3-(4-Chlorophenyl)-5-oxo-4-[(2S)-3,3,3-trifluoro-2-hydroxypropyl]-4,5-dihydro-1H-1,2,4-triazol-1-yl}methyl)-1-(2-chloropyridin-3-yl)-N-[1-formylpyrrolidin-3-yl]-1H-1,2,4-triazole-5-carboxamide] |
| 185 nM | 300 nM | 1.6 | CC1(O)CCN(C(=O)c2nc(Cn3nc(-c4ccc(Cl)cc4)n(C[C@H](O)C(F)(F)F)c3=O)nn2CCC(F)(F)F)C1 (single isomer, unassigned) [Example 24] |
| 0.66 nM | 82 nM | 124.2 | CC(C)(O)CNC(=O)c1nc(Cn2nc(-c3ccc(Cl)cc3)n(C[C@H](O)C(F)(F)F)c2=O)nn1-c1ncccc1OC(F)(F)F [Example 1, 3-({3-(4-Chlorophenyl)-5-oxo-4-[(2S)-3,3,3-trifluoro-2-hydroxypropyl]-4,5-dihydro-1H-1,2,4-triazol-1-yl}methyl)-N-(2-hydroxy-2-methylpropyl)-1-[3-(trifluoromethoxy)pyridin-2-yl]-1H1,2,4-triazole-5-carboxamide] |
| 1.23 nM | 40.7 nM | 33.1 | O=C(NCC(F)(F)F)c1nc(Cn2nc(-c3ccc(Cl)cc3)n(C[C@H](O)C(F)(F)F)c2=O)nn1-c1ncccc1Br [Example 16, 1-(3-Bromopyridin-2-yl)-3-({3-(4-chlorophenyl)-5-oxo-4-[(2S)-3,3,3-trifluoro-2-hydroxypropyl]-4,5-dihydro-1H-1,2,4-triazol-1-yl}methyl)-N-(2,2,2-trifluoroethyl)-1H-1,2,4-triazole-5-carboxamide] |
| 0.78 nM | 83.5 nM | 107.1 | O=C(NCCC(F)(F)F)c1nc(Cn2nc(-c3ccc(Cl)cc3)n(C[C@H](O)C(F)(F)F)c2=O)nn1-c1ncccc1C(F)(F)F [Example 54, 3-({3-(4-Chlorophenyl)-5-oxo-4-[(2S)-3,3,3-trifluoro-2-hydroxypropyl]-4,5-dihydro-1H-1,2,4-triazol-1-yl}methyl)-1-[3-(trifluoromethyl)pyridin-2-yl]-N-(3,3,3-trifluoropropyl)-1H-1,2,4-triazole-5-carboxamide] |
| 47 nM | 28.1 nM | 0.6 | O=C(NC1CC1)c1nc(Cn2nc(-c3ccc(Cl)cc3)n(C[C@H](O)C(F)(F)F)c2=O)nn1-c1cccc(F)c1 [Example 39, 3-({3-(4-Chlorophenyl)-5-oxo-4-[(2S)-3,3,3-trifluoro-2-hydroxypropyl]-4,5-dihydro-1H-1,2,4-triazol-1-yl}methyl)-N-cyclopropyl-1-(3-fluorophenyl)-1H-1,2,4-triazole-5-carboxamide] |
| 6.05 nM | 22.5 nM | 3.7 | CNC(=O)c1nc(Cn2nc(-c3ccc(Cl)cc3)n(C[C@H](O)C(F)(F)F)c2=O)nn1-c1ncccc1OC [Example 21, 3-({3-(4-Chlorophenyl)-5-oxo-4-[(2S)-3,3,3-trifluoro-2-hydroxypropyl]-4,5-dihydro-1H-1,2,4-triazol-1-yl}methyl)-1-(3-methoxypyridin-2-yl)-N-methyl-1H-1,2,4-triazole-5-carboxamide] |
| 2.9 nM | 148 nM | 51.1 | NNC(=O)c1nc(Cn2nc(-c3ccc(Cl)cc3)n(C[C@H](O)C(F)(F)F)c2=O)nn1-c1cnccc1Cl [Example 9, 3-({3-(4-Chlorophenyl)-5-oxo-4-[(2S)-3,3,3-trifluoro-2-hydroxypropyl]-4,5-dihydro-1H-1,2,4-triazol-1-yl}methyl)-1-(4-chloropyridin-3-yl)-1H-1,2,4-triazole-5-carbohydrazide] |
| 4.92 nM | 3.64 nM | 0.7 | CN(C)C(=O)c1nc(Cn2nc(-c3ccc(Cl)cc3)n(C[C@H](O)C(F)(F)F)c2=O)nn1-c1cccc(Cl)c1 [Example 35, 1-(3-Chlorophenyl)-3-({3-(4-chlorophenyl)-5-oxo-4-[(2S)-3,3,3-trifluoro-2-hydroxypropyl]-4,5-dihydro-1H-1,2,4-triazol-1-yl}methyl)-N,N-dimethyl-1H-1,2,4-triazole-5-carboxamide] |
| 19.5 nM | 635 nM | 32.6 | CC(C)(C)NC(=O)c1nc(Cn2nc(-c3ccc(Cl)cc3)n(C[C@H](O)C(F)(F)F)c2=O)nn1-c1ncccc1OC(F)(F)F [Example 29, N-tert-Butyl-3-({3-(4-chlorophenyl)-5-oxo-4-[(2S)-3,3,3-trifluoro-2-hydroxypropyl]-4,5-dihydro-1H-1,2,4-triazol-1-yl}methyl)-1-[3-(trifluoromethoxy)pyridin-2-yl]-1H-1,2,4-triazole-5-carboxamide] |
| 0.83 nM | 470 nM | 569.7 | CC(C)(N)CNC(=O)c1nc(Cn2nc(-c3ccc(Cl)cc3)n(C[C@H](O)C(F)(F)F)c2=O)nn1-c1ncccc1OC(F)(F)F [Example 3, N-(2-Amino-2-methylpropyl)-3-({3-(4-chlorophenyl)-5-oxo-4-[(2S)-3,3,3-trifluoro-2-hydroxypropyl]-4,5-dihydro-1H-1,2,4-triazol-1-yl}methyl)-1-[3-(trifluoromethoxy)pyridin-2-yl]-1H-1,2,4-triazole-5-carboxamide] |
| 135 nM | 1190 nM | 8.8 | NC(CNC(=O)c1nc(Cn2nc(-c3ccc(Cl)cc3)n(C[C@H](O)C(F)(F)F)c2=O)nn1-c1ncccc1C(F)(F)F)C(F)(F)F (mixture of isomers) [Example 51, N-(2-Amino-3,3,3-trifluoropropyl)-3-({3-(4-chlorophenyl)-5-oxo-4-[(2S)-3,3,3-trifluoro-2-hydroxypropyl]-4,5-dihydro-1H-1,2,4-triazol-1-yl}methyl)-1-[3-(trifluoromethyl)pyridin-2-yl]-1H1,2,4-triazole-5-carboxamide hydrochloride] |
| 10.3 nM | 1130 nM | 108.7 | CC1(O)CCN(C(=O)c2nc(Cn3nc(-c4ccc(Cl)cc4)n(C[C@H](O)C(F)(F)F)c3=O)nn2-c2ncccc2OC(F)(F)F)C1 (stereo partly drawn) [Example 5, 5-(4-Chlorophenyl)-2-[(5-[{3-hydroxy-3-methylpyrrolidin-1-yl]carbonyl}-1-[3-(trifluoromethoxy)pyridin-2-yl]-1H-1,2,4-triazol-3-yl)methyl]-4[(2S)-3,3,3-trifluoro-2-hydroxypropyl]-2,4-dihydro-3H-1,2,4-triazol-3-one] |
